Earlier results in patent US8652504B2, “Solid polymer delivery compositions and methods for use thereof” (Medivas, LLC, priority 2005, dated 2014).

Legend:
[1] = tested on: nerve impulses; details: local anesthetic
[2] = in vivo

Structure (SMILES)	duration of action [1]	serum bupivacaine level at which toxicity has been reported / generally considered toxic [2]	morphine requirements and subjective pain scores (intra-articular bupivacaine (up to 0.5%) at 4 mL/hr, first 24 hours after surgery)	serum bupivacaine level (one patient receiving 0.5% intra-articular bupivacaine at 4 mL/hr)
CCN(CC)CC(=O)Nc1c(C)cccc1C [lidocaine]	1 to 2 h	–	–	–
CCCCN1CCCCC1C(=O)Nc1c(C)cccc1C (centres unmarked) [bupivacaine]	6 to 8 h	1.0 µg/mL	neither reduced morphine requirements nor decreased subjective pain scores	1.2 µg/mL
